From US12084411B2, “Hinokitiol analogues, methods of preparing and pharmaceutical compositions thereof” (The Board of Trustees of the University of Illinois, priority 2018, dated 2024)
Where a name gives a salt, the structure may show the parent alone. Marks after values point to notes of the source that are not given here.

Columns and labels:
fet3Δftr1Δ yeast [1] = test: Growth rescue of fet3Δftr1Δ yeast with small molecules in liquid media; format: cell-based, Saccharomyces cerevisiae; conditions: liquid low iron SD media, 10 μM FeCl3
Protocol: (§1) Growth rescue in yeast was performed similar to previously reported (20) using 10 μM hinokitiol in low iron SD liquid media containing 10 μM FeCl3 in a 96-well plate unless otherwise noted. Wild type and fet3Δftr1Δ controls treated with vehicle (DMSO) were performed under identical conditions using the same low iron SD media containing 10 μM FeCl3 in the absence of hinokitiol. Yeast were grown overnight in YPD media and diluted at an OD600 of 0.1 in SD media, diluted 10-fold, and incubated at 30° C. with continuous shaking (200 rpm). The OD600 was obtained 24-48 hours after inoculation unless otherwise noted.
(§2) Small molecule dose-response (FIG. 1F) with hinokitiol and C2-deoxy hinokitiol (C2deOHino, see synthesis below) was determined by addition of the small molecule (40X stock solution in DMSO) to give the indicated final concentrations.

wild-type yeast (WT) = test: Toxicity to wild type yeast (structure-activity study, FIG. 25)
Protocol: as §1, §2

[2] = WST-8 toxicity in Caco-2 cells; conditions: human, wild type Caco-2 cells
Protocol: Determination of small molecule-mediated toxicity in Caco-2, MEL, and/or J774 cells was performed according to manufacturer instructions using a WST-8 kit (Cayman Chemical 10010199) similar to previously reported (76) using a 1000× stock of the indicated small molecule in DMSO to give the indicated final concentration.

[3] = Iron (III) binding affinity, EDTA or citrate competition assay; conditions: for KA for iron (III): EDTA competition (citrate for maltol), pH 7.0; for pFe^III: estimated from known pFe of EDTA (citrate for maltol)
Protocol: (§3) Specifically, the association constant for iron (II) was determined by a ferrozine competition assay (KA of ferrozine=3.65×10^15) (60). FeCl2 (25 μM) was pre-mixed with ferrozine (75 μM) in a 25 mM MES/Tris buffer at pH=7.0 containing 62.5 mM sodium ascorbate. Then increasing concentrations of small molecule (from 40X stocks in DMSO) were added to the indicated final concentrations. The solutions were allowed to equilibrate for 24 hours before reading of the absorbance at 562 nm. […] The system was allowed to equilibrate overnight, and the absorbance corresponding to the Fe(chelator)3 complex was determined. The EC50 values for each chelator were calculated by a nonlinear curve fit (Hill1) on OriginPro by plotting the absorbance vs. concentration of titrant, and the KA for each complex was determined from the equation: KA, ligand=(KA, competitor*[EC50])/[ligand] where the ligand is the molecule originally bound to iron, and the competitor is the competing chelator.

[4] = not run under identical conditions, cited from earlier work; for E^0 Aqueous, literature value: Table 2, in parenthesis; for E^0 literature: Table 6
[5] = in parenthesis, cited from earlier work; for pFe^III, literature value: References 104, 106
[6] = Iron (II) binding affinity, ferrozine competition assay; conditions: pH 7.0
Protocol: as §3

[7] = tested on: DMT1-deficient Caco-2 monolayers; test: 55Fe uptake and transport in DMT1-deficient Caco-2 monolayers; conditions: apical addition (hinokitiol 500 nM); pH 5.5 apical, pH 7.4 basolateral; four hours
Protocol: Media from differentiated Caco-2 monolayers (P25-50, 21-28 days post seeding) grown on PET inserts in 6-well plates was aspirated, and monolayers were rinsed with PBS. 2 mL of basolateral fluid (serum-free DMEM at pH=7.4 in 10 mM HEPES buffer) was added to the basolateralside, and 1 mL of apical fluid (serum-free DMEM at pH=5.5 in 10 mM MES buffer) containing 200 nM ^55FeCl3 or the indicated concentration of FeCl3 and either DMSO vehicle, hinokitiol, C2deOHino, deferiprone, PIH, SIH, or deferoxamine mesylate (Sigma D9533) (500 nM Hino/C2deOHino for DMT1-deficiency, 1 μM Hino/C2deOHino for FPN1-deficiency, or indicated concentration of small molecule from a 1000X stock in DMSO) was added to the apical side via addition on the wall of the membrane insert without disrupting the cell monolayer. The monolayers were then incubated for four hours at 37° C. unless otherwise noted. A 100 μL aliquot of the basolateral fluid was removed, diluted in scintillation cocktail, and radioactivity was determined on a liquid scintillation counter to quantify relative amounts of ^55Fe transport. To determine intracellular ^55Fe, the basolateral and apical media was removed, and the monolayer was rinsed with PBS (×2). The cells were then lysed with 500 μL of 200 mM NaOH with nutator mixing overnight, and radioactivity was determined on a liquid scintillation counter after diluting the cell lysate in scintillation cocktail. All values were normalized to shControl monolayers unless otherwise noted. Absolute iron levels were determined through calibration of ^55Fe radioactivity levels with known standards and average mg of protein per membrane was determined by protein lysis with RIPA buffer containing protease inhibitors and quantified through a BCA kit according to manufacturer instructions.
TEER determination in Caco-2 monolayers (FIG. 12D and FIG. 14L) To determine Caco-2 membrane integrity, transport studies were performed as described above, except for the use of non-radioactive iron instead of ^55FeCl3. At the indicated time points, the transepithelial electrical resistance (TEER) was determined with an epithelial voltohmmeter and compared to the TEER of the membrane at the beginning of the experiment.

fet3Δftr1Δ yeast [8] = test: Growth rescue of iron-deficient yeast with small molecules on agar plates; format: cell-based, Saccharomyces cerevisiae; conditions: low iron SD-agar plates, 10 μM FeCl3
[9] = Electrochemical studies (cyclic voltammetry) of iron:chelator complexes; format: physicochemical
Protocol: Potentiostatic electrochemical methods were performed on a CH Instruments electrochemical workstation (model 760 C, Austin, TX) on a three-electrode cell. Hg working electrodes were fabricated by the electrodeposition of Hg on a Pt wire utilizing the procedure previously described by Barton et al. (70). All experiments were reported versus a Ag/AgCl reference electrode and utilized a graphite auxiliary electrode. The electrolyte was sparged with UHP argon before measurements. A positive pressure of argon was maintained throughout the experiments.
Unless otherwise indicated, experiments used a 0.1 M Tris buffer in H2O or 1:1 MeOH:H2O at pH=7.2 using HNO3 and KOH as titrant. Unless otherwise indicated, experiments used a 100 mV/s scan rate, 100 μM Fe(NO3)3, and 500 μM small molecule. All redox potentials are recorded versus a normal hydrogen electrode (NHE).
The estimated redox potential of Fe(Hino)n was determined through extrapolation of the best-fit line of the determined redox potentials of Fe(Hino)n as a function of the concentration of MeOH in the 0.1 M Tris buffer at pH=7.2.

[10] = Iron efflux from liposomes using ferrozine; format: biochemical; conditions: 5 μM small molecule
Protocol: Iron (III) efflux from POPC liposomes was determined similar to previously reported (64). POPC liposomes were prepared as similarly reported (65) using 30 mM FeCl3, 62.5 mM citrate at pH=7.0 in 25 mM Mes/Tris buffer. External iron was removed by size exclusion chromatography using Sephadex G-50 and eluting with external buffer. External buffer consisted of 62.5 mM ascorbate at pH=7.0 in 25 mM Mes/Tris buffer. The liposomes were diluted to 1 mM phosphorus in this buffer. Ferrozine (Sigma 160601) was added (100X stock in external buffer) to a final concentration of 500 μM. Liposomal suspension was then transferred to a 96-well plate, and either DMSO or 5 μM hinokitiol, C2deOHino, deferiprone, or PIH (40X stock solution in DMSO) were added to initiate the experiment. The OD562 was determined every minute over the course of 2 hours using a plate-reader with continuous shaking at 30° C. to detect the relative amounts of external ferrozine-iron chelate at the indicated times. After 2 hours, liposomes were lysed with Triton-X to give 100% iron efflux.
Iron (II) efflux was performed as described above, however, the internal buffer alternatively consisted of 30 mM FeSO4, 62.5 mM ascorbate at pH=7.0 in 25 mM Mes/Tris buffer and Triton-X lysis was performed after 1 hour.
The rates of iron efflux with increasing concentrations of intraliposomal iron and/or hinokitiol were determined as described above using the indicated concentration of iron and hinokitiol. For the varying concentrations of iron, hinokitiol (10 μM) was added to the POPC liposomes, and the change in absorbance at 562 nm was determined over 2 hours. For the varying concentrations of hinokitiol, 30 mM intraliposomal iron was used as described above. The concentration of iron outside of liposomes was determined using the extinction coefficient for ferrozine-iron (27,900 M^−1 cm^−1) (66). This was used to determine the amount of iron released from liposomes at the indicated times using the total volume for each experiment. Rates of iron efflux were determined after one hour of hinokitiol treatment.

[11] = Lipophilicity determination for small molecule iron chelates (octanol-water partition); format: physicochemical; conditions: octanol-water partition coefficient
Protocol: Concentrations of small molecule in water were determined via UV-Vis spectroscopy compared to known initial standards.

[12] = tested on: hinokitiol-rescued fet3Δftr1Δ yeast; test: Chemical inhibition of yeast cell growth with inhibitors of Pma1, V-ATPase; format: cell-based, Saccharomyces cerevisiae; conditions: 10 μM hinokitiol, 10 μM FeCl3
Protocol: Increasing dosages of caspofungin (Sigma SML0425), ebselen (Sigma 70530), or bafilomycin B1 (Santa Cruz sc-202072) (40X stocks in DMSO) were added to a yeast suspension (10-fold dilution from OD600=0.1) to give the indicated final dose. EC50 values were calculated from fitting of yeast growth curves using GraphPad PRISM.

CC(C)CCc1cccc(O)c(=O)c1 [4-isopentyl tropolone]
restoration of fet3Δftr1Δ yeast growth, small molecule dose-response (fet3Δftr1Δ yeast [1]): no rescue
toxicity to wild type yeast (wild-type yeast (WT)): most toxic

Cc1c(O)c(=O)ccn1C [Deferiprone, deferiprone]
EC90 [2]: > 100 µM
KA for iron (III) [3]: 1.2 × 10^24
pFe^III [3]: 22^+
E^0 Aqueous, literature value [4]: (−423)^# mV vs. N.H.E.
pFe^III, literature value [5]: (21)^§
KA for iron (II) [6]: 2.1 × 10^15
iron uptake and transepithelial transport [7]: did not promote both uptake and transport
growth rescue of fet3Δftr1Δ yeast (fet3Δftr1Δ yeast [8]): no growth rescue
E^0 Aqueous ([9]; Table 2): −420 mV vs. N.H.E.
E^0 1:1 MeOH:H2O ([9]; Table 2, 0.1 M Tris, pH 7.2): −410 mV vs. N.H.E.
transport of ferrous and ferric iron across model liposomal membranes [10]: minimal transport

O=C(O)CN(CCN(CC(=O)O)CC(=O)O)CC(=O)O [EDTA]
E^0 Aqueous, literature value [4]: (137)**** mV vs. N.H.E.
KA for iron (III), literature value ([5]; Reference 60): (1.7 × 10^24)*
pFe^III, literature value [5]: (22)^∥
KA for iron (II) [6]: 1.2 × 10^15
E^0 Aqueous ([9]; Table 2): 131 mV vs. N.H.E.
E^0 1:1 MeOH:H2O ([9]; Table 2, 0.1 M Tris, pH 7.2): 139 mV vs. N.H.E.

O=C([O-])CN(CCN(CC(=O)[O-])CC(=O)[O-])CC(=O)[O-].[Fe+3] [Fe^III(EDTA)]
E^0 literature [4]: 137^§ mV vs. N.H.E.
E^0 Aqueous ([9]; Table 6): 181 mV vs. N.H.E.
E^0 1:1 MeOH:H2O ([9]; Table 6, pH 7.2, 500 μM small molecule, 100 μM Fe(NO3)3): 139 mV vs. N.H.E.

Cc1occc(=O)c1O [Maltol, maltol]
KA for iron (III) [3]: 3.9 × 10^17
pFe^III [3]: 15.4^±
E^0 Aqueous, literature value [4]: (40)*** mV vs. N.H.E.
pFe^III, literature value [5]: (15)^§
KA for iron (II) [6]: 7.8 × 10^13
E^0 Aqueous ([9]; Table 2): 41 mV vs. N.H.E.
E^0 1:1 MeOH:H2O ([9]; Table 2, 0.1 M Tris, pH 7.2): 8 mV vs. N.H.E.

NC(=O)c1ccc[n+]([C@@H]2O[C@H](COP(=O)([O-])OP(=O)(O)OC[C@H]3O[C@@H](n4cnc5c(N)ncnc54)[C@H](OP(=O)(O)O)[C@@H]3O)[C@@H](O)[C@H]2O)c1 [NADP^+]
E^0 literature [4]: 108 mV vs. N.H.E.

Cc1ncc(CO)c(C=NNC(=O)c2ccncc2)c1O [PIH, pyridoxal isonicotinoyl hydrazone]
EC90 [2]: 31 µM
iron uptake and transepithelial transport [7]: did not promote both uptake and transport
growth rescue of fet3Δftr1Δ yeast (fet3Δftr1Δ yeast [8]): no growth rescue
transport of ferrous and ferric iron across model liposomal membranes [10]: minimal transport

O=C(NN=Cc1ccccc1O)c1ccncc1 [SIH, salicylaldehyde isonicotinoyl hydrazone]
iron uptake and transepithelial transport [7]: did not promote both uptake and transport
growth rescue of fet3Δftr1Δ yeast (fet3Δftr1Δ yeast [8]): no growth rescue

O=c1cccccc1O [Tropolene]
logP Fe^III Complex [11]: −0.03
KA for iron (III) [3]: 1.1 × 10^24
pFe^III [3]: 22^+
E^0 Aqueous, literature value [4]: (0)** mV vs. N.H.E.
KA for iron (II) [6]: 2.3 × 10^15
E^0 Aqueous ([9]; Table 2): 39 mV vs. N.H.E.
E^0 1:1 MeOH:H2O ([9]; Table 2, 0.1 M Tris, pH 7.2): 38 mV vs. N.H.E.

O=c1cccccc1O [Tropolone, tropolone]
restoration of fet3Δftr1Δ yeast growth, small molecule dose-response (fet3Δftr1Δ yeast [1]): shows rescue of Fet3Ftr1 yeast, but only at higher concentrations
toxicity to wild type yeast (wild-type yeast (WT)): does not show toxicity

CO/C1=C\C(C)=C\[C@@H](C)[C@@H](O)[C@@H](C)C/C(C)=C/C=C/[C@H](OC)[C@@H]([C@@H](C)[C@@H](O)[C@H](C)[C@@]2(O)C[C@@H](OC(=O)/C=C/C(=O)NC3=C(O)CCC3=O)[C@H](C)[C@@H](C(C)C)O2)OC1=O [bafilomycin, bafilomycin B1]
sensitivity of hinokitiol-rescued fet3Δftr1Δ yeast relative to hinokitiol-treated wild type yeast [12]: increased sensitivity

CC[C@H](C)C[C@H](C)CCCCCCCCC(=O)N[C@H]1C[C@@H](O)[C@@H](NCCN)NC(=O)[C@@H]2[C@@H](O)CCN2C(=O)[C@H]([C@H](O)CCN)NC(=O)[C@H]([C@H](O)[C@@H](O)c2ccc(O)cc2)NC(=O)[C@@H]2C[C@@H](O)CN2C(=O)[C@H]([C@@H](C)O)NC1=O [caspofungin]
sensitivity of hinokitiol-rescued fet3Δftr1Δ yeast relative to hinokitiol-treated wild type yeast [12]: equisensitive

CC(=O)N(O)CCCCCNC(=O)CCC(=O)N(O)CCCCCNC(=O)CCC(=O)N(O)CCCCCN [deferoxamine, deferoxamine mesylate]
iron uptake and transepithelial transport [7]: did not promote both uptake and transport
